Molecules are shown by their SMILES.

Data on 24 compounds can be found in patent US8134015B2, “Compound inhibiting in vivo phosphorous transport and medicine containing the same” (Kyowa Hakko Kirin Co., Ltd., priority 2003, dated 2012).

The experiment deals with T1, rat NaPi-2b (Rattus norvegicus, UniProt Q9JJ09).
T1 construct: expressed in transfected cells; host or cells: Xenopus oocytes injected with cRNA
T1 sequence (Q9JJ09 1-695): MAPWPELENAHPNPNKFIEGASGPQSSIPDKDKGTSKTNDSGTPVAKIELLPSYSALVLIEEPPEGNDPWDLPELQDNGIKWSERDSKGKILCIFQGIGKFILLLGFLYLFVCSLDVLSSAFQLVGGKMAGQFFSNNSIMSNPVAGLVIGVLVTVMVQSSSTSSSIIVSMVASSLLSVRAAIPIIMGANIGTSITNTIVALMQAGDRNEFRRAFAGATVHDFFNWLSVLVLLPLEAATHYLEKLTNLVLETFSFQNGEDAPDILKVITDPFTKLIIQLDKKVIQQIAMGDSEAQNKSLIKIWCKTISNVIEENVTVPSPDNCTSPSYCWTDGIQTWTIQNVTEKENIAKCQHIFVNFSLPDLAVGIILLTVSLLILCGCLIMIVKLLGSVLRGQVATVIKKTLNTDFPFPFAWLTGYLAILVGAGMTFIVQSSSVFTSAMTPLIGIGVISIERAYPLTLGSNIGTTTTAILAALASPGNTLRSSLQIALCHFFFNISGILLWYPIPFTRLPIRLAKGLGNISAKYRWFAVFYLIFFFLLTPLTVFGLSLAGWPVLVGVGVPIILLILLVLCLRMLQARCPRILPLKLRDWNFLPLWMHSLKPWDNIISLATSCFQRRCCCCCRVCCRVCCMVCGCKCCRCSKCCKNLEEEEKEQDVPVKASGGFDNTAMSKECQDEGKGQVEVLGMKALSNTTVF
Briefly: Sodium-dependent phosphate uptake of Xenopus oocytes which expressed NaPi-2b (32P). Conditions: Xenopus oocytes expressing rat NaPi-2b, 32P radioactive phosphorus; read-out: IC50 (phosphate uptake inhibitory activity). It is filed as cell-based. Summed up: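 Oocytes injected with rat NaPi-2b cRNA, cultured 2 d, then 32P uptake measured with compound. Values: % inhibition at 300 and 100 μM, both from one inhibition curve.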

Regarding `Cc1csc(NC(=O)c2cccc(CN(CCO)CCO)c2)c1C(=O)N/N=C/c1ccc(Cl)c(C(F)(F)F)c1` [Compound 790, 3-{[Bis-(2-hydroxy-ethyl)-amino]-methyl}-N-[3-(4-chloro-3-trifluoromethyl-benzylidene-hydrazinocarbonyl)-4-methyl-thiophen-2-yl]-benzamide], the IC50 is 4.32 µM. In the case of `Cc1ccc(/C=N/NC(=O)c2c(NC(=O)c3cccc(CN(CC(C)O)CC(C)O)c3)sc3ccccc23)cc1C` (stereo not drawn) [Compound 792, 3-{[Bis-(2-hydroxy-propyl)-amino]-methyl}-N-[3-(3,4-dimethyl-benzylidene-hydrazinocarbonyl)-benzo[b]thiophen-2-yl]-benzamide] it was 1.26 µM.

Regarding `CC(O)CN(Cc1cccc(C(=O)Nc2sc3ccccc3c2C(=O)N/N=C/c2ccc(Cl)c(C(F)(F)F)c2)c1)CC(C)O` (stereo not drawn) [Compound 796, 3-{[Bis-(2-hydroxy-propyl)-amino]-methyl}-N-[3-(4-chloro-3-trifluoromethyl-benzylidene-hydrazinocarbonyl)-benzo[b]thiophen-2-yl]-benzamide], the 50% inhibitory concentration (IC50) is 0.35 µM. The figure for `COc1ccc(/C=N/NC(=O)c2c(NC(=O)c3cccc(CN(CC(C)O)CC(C)O)c3)sc3ccccc23)cc1` (stereo not drawn) [Compound 797, 3-{[Bis-(2-hydroxy-propyl)-amino]-methyl}-N-[3-(4-methoxy-benzylidene-hydrazinocarbonyl)-benzo[b]thiophen-2-yl]-benzamide] is 3.39 µM; for `Cc1ccc(/C=N/NC(=O)c2c(NC(=O)c3cccc(CN4CCC(CO)CC4)c3)sc3ccccc23)cc1C` [Compound 798, N-[3-(3,4-Dimethyl-benzylidene-hydrazinocarbonyl)-benzo[b]thiophen-2-yl]-3-(4-hydroxymethyl-piperidin-1-ylmethyl)-benzamide] it is 3.62 µM. In the case of `Cc1ccc(/C=N/NC(=O)c2c(NC(=O)c3cccc(CN4CCC(CO)CC4)c3)sc3ccccc23)cc1` [Compound 799, 3-(4-Hydroxymethyl-piperidin-1-ylmethyl)-N-[3-(4-methyl-benzylidene-hydrazinocarbonyl)-benzo[b]thiophen-2-yl]-benzamide] it was 3.72 µM; in that of `COc1ccc(/C=N/NC(=O)c2c(NC(=O)c3cccc(CN4CCC(CO)CC4)c3)sc3ccccc23)cc1` [Compound 803, 3-(4-Hydroxymethyl-piperidin-1-ylmethyl)-N-[3-(4-methoxy-benzylidene-hydrazinocarbonyl)-benzo[b]thiophen-2-yl]-benzamide], 4.92 µM.

As for `Cc1ccc(/C=N/NC(=O)c2c(NC(=O)c3cccc(CN(CC(C)O)CC(C)O)c3)sc3c2CCC3)cc1C` (stereo not drawn) [Compound 804, 3-{[Bis-(2-hydroxy-propyl)-amino]-methyl}-N-[3-(3,4-dimethyl-benzylidene-hydrazinocarbonyl)-5,6-dihydro-4H-cyclopenta[b]thiophen-2-yl]-benzamide], the IC50 came out at 1.23 µM. In the case of `Cc1ccc(/C=N/NC(=O)c2c(NC(=O)c3cccc(CN(CC(C)O)CC(C)O)c3)sc3c2CCC3)cc1` (stereo not drawn) [Compound 805, 3-{[Bis-(2-hydroxy-propyl)-amino]-methyl}-N-[3-(4-methyl-benzylidene-hydrazinocarbonyl)-5,6-dihydro-4H-cyclopenta[b]-thiophen-2-yl]-benzamide] it was 4.76 µM; in that of `CC(O)CN(Cc1cccc(C(=O)Nc2sc3c(c2C(=O)N/N=C/c2ccc(Cl)c(C(F)(F)F)c2)CCC3)c1)CC(C)O` (stereo not drawn) [Compound 808, 3-{[Bis-(2-hydroxy-propyl)-amino]-methyl}-N-[3-(4-chloro-3-trifluoromethyl-benzylidene-hydrazinocarbonyl)-5,6-dihydro-4H-cyclopenta[b]thiophen-2-yl]-benzamide], 1.97 µM; in that of `COc1ccc(/C=N/NC(=O)c2c(NC(=O)c3cccc(CN(CC(C)O)CC(C)O)c3)sc3c2CCC3)cc1` (stereo not drawn) [Compound 809, 3-{[Bis-(2-hydroxy-propyl)-amino]-methyl}-N-[3-(4-methoxy-benzylidene-hydrazinocarbonyl)-5,6-dihydro-4H-cyclopenta[b]thiophen-2-yl]-benzamide], 5.22 µM. The figure for `CCN(CC)CCNCc1cccc(C(=O)Nc2sc3c(c2C(=O)N/N=C/c2cccc(F)c2)CCC3)c1` [Compound 812, 3-[(2-Diethylamino-ethylamino)-methyl]-N-[3-(3-fluoro-benzylidene-hydrazinocarbonyl)-5,6-dihydro-4H-cyclopenta[b]thiophen-2-yl]-benzamide] is 5.58 µM; for `CCN(CC)CCNCc1cccc(C(=O)Nc2sc3c(c2C(=O)N/N=C/c2ccc(OC)cc2)CCC3)c1` [Compound 815, 3-[(2-Diethylamino-ethylamino)-methyl]-N-[3-(4-methoxy-benzylidene-hydrazinocarbonyl)-5,6-dihydro-4H-cyclopenta[b]thiophen-2-yl]-benzamide] it is 16.7 µM. In the case of `Cc1ccc(/C=N/NC(=O)c2c(NC(=O)c3cccc(CN4CCC(CO)CC4)c3)sc3c2CCC3)cc1C` [Compound 816, N-[3-(3,4-Dimethyl-benzylidene-hydrazinocarbonyl)-5,6-dihydro-4H-cyclopenta[b]thiophen-2-yl]-3-(4-hydroxymethyl-piperidin-1-ylmethyl)-benzamide] it was 14.8 µM; in that of `Cc1ccc(/C=N/NC(=O)c2c(NC(=O)c3cccc(CN4CCC(CO)CC4)c3)sc3c2CCC3)cc1` [Compound 817, 3-(4-Hydroxymethyl-piperidin-1-ylmethyl)-N-[3-(4-methyl-benzylidene-hydrazinocarbonyl)-5,6-dihydro-4H-cyclopenta[b]thiophen-2-yl]-benzamide], 36.1 µM.

For the compound `O=C(Nc1sc2c(c1C(=O)N/N=C/c1cccc(F)c1)CCC2)c1cccc(CN2CCC(CO)CC2)c1` [Compound 819, N-[3-(3-Fluoro-benzylidene-hydrazinocarbonyl)-5,6-dihydro-4H-cyclopenta[b]thiophen-2-yl]-3-(4-hydroxymethyl-piperidin-1-ylmethyl)-benzamide], the IC50 is 5.95 µM.

As for `O=C(Nc1sc2c(c1C(=O)N/N=C/c1ccc(Cl)c(C(F)(F)F)c1)CCC2)c1cccc(CN2CCC(CO)CC2)c1` [Compound 820, N-[3-(4-Chloro-3-trifluoromethyl-benzylidene-hydrazinocarbonyl)-5,6-dihydro-4H-cyclopenta[b]thiophen-2-yl]-3-(4-hydroxymethyl-piperidin-1-ylmethyl)-benzamide], the IC50 amounted to 17.9 µM. In the case of `COc1ccc(/C=N/NC(=O)c2c(NC(=O)c3cccc(CN4CCC(CO)CC4)c3)sc3c2CCC3)cc1` [Compound 821, 3-(4-Hydroxymethyl-piperidin-1-ylmethyl)-N-[3-(4-methoxy-benzylidene-hydrazinocarbonyl)-5,6-dihydro-4H-cyclopenta[b]thiophen-2-yl]-benzamide], the IC50 turned out to be 17.9 µM.

As to `Cc1ccc(/C=N/NC(=O)c2c(C)csc2NC(=O)c2cccc(CN(C)C)c2)cc1` [Compound 823, 3-Dimethylaminomethyl-N-[4-methyl-3-(4-methyl-benzylidene-hydrazinocarbonyl)-thiophen-2-yl]-benzamide], the IC50 stood at 6.93 µM.

As for `COc1ccc(/C=N/NC(=O)c2c(C)csc2NC(=O)c2cccc(CN(C)C)c2)cc1` [Compound 825, 3-Dimethylaminomethyl-N-[3-(4-methoxy-benzylidene-hydrazinocarbonyl)-4-methyl-thiophen-2-yl]-benzamide], the IC50 was 4.52 µM. In the case of `Cc1ccc(/C=N/NC(=O)c2c(C)csc2NC(=O)c2cccc(CN3CCN(c4ncccn4)CC3)c2)cc1C` [Compound 826, N-[3-(3,4-Dimethyl-benzylidene-hydrazinocarbonyl)-4-methyl-thiophen-2-yl]-3-(4-pyrimidin-2-yl-piperazin-1-ylmethyl)-benzamide] it was 4.44 µM; in that of `COc1ccc(/C=N/NC(=O)c2c(C)csc2NC(=O)c2cccc(CN3CCC4(CC3)OCCO4)c2)cc1` [Compound 837, 3-(1,4-Dioxa-8-aza-spiro[4,5]dec-8-ylmethyl]-N-[3-(4-methoxy-benzylidene-hydrazinocarbonyl)-4-methyl-thiophen-2-yl]-benzamide], 12.9 µM.

Take `CCN(CC)CCN(CCN(CC)CC)Cc1cccc(C(=O)Nc2scc(C)c2C(=O)N/N=C/c2ccc(Cl)c(C(F)(F)F)c2)c1` [Compound 842, 3-{[Bis-(2-diethylamino-ethyl)-amino]-methyl}-N-[3-(4-chloro-3-trifluoromethyl-benzylidene-hydrazinocarbonyl)-4-methyl-thiophen-2-yl]-benzamide]: the IC50 was 3.22 µM.

With `CCN(CC)CCN(CCN(CC)CC)Cc1cccc(C(=O)Nc2scc(C)c2C(=O)N/N=C/c2ccc(OC)cc2)c1` [Compound 843, 3-{[Bis-(2-diethylamino-ethyl)-amino]-methyl}-N-[3-(4-methoxy-benzylidene-hydrazinocarbonyl)-4-methyl-thiophen-2-yl]-benzamide], the IC50 came out at 4.19 µM.
